Results as given in PubChem BioAssay AID292 (DTP/NCI, 2004).
Several values for one entry are separate records, joined by “and”; a condition that tells them apart may be missing. Equal values may be shown once. Inconclusive results and toxic doses are left out.

Test system: B6C3F1 mice, ip Sarcoma M5076, median survival T/C
Assay: NCI In Vivo Anticancer Drug Screen. Data for tumor model Sarcoma M5076 (intraperitoneal) in B6C3F1 mice
Conditions: endpoint: median survival time, higher = longer survival
Method in brief: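 Survival measured in treated (T) and vehicle control (C) mice with transplantable tumour; result given as T divided by C.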

[1] = dose: 50.0 mg/kg/injection, schedule: Q04DX004 (ip), vehicle: Klucel (hydroxypropylcellulose) (HPC)
[2] = dose: 100.0 mg/kg/injection, schedule: Q04DX004 (ip), vehicle: Klucel (hydroxypropylcellulose) (HPC)
[3] = dose: 50.0 mg/kg/injection, schedule: Q04DX004 (ip), vehicle: saline
[4] = dose: 100.0 mg/kg/injection, schedule: Q04DX004 (ip), vehicle: saline
[5] = dose: 200.0 mg/kg/injection, schedule: Q04DX004 (ip), vehicle: saline
[6] = dose: 50.0 mg/kg/injection, schedule: Q04DX004 (ip), vehicle: saline with Tween-80
[7] = dose: 100.0 mg/kg/injection, schedule: Q04DX004 (ip), vehicle: saline with Tween-80
[8] = dose: 200.0 mg/kg/injection, schedule: Q04DX004 (ip), vehicle: saline with Tween-80
[9] = dose: 400.0 mg/kg/injection, schedule: Q04DX004 (ip), vehicle: saline with Tween-80

Compound: O=c1[nH]cnc2c1ncn2C1CC2[O][Sn]([c]3ccccc3)([c]3ccccc3)[O]CC2O1 (stereo not given)
- T/C (dose: 37.5 mg/kg/injection, schedule: Q04DX004 (ip), vehicle: distilled water + Tween-80): 106 % of control
- T/C (dose: 75.0 mg/kg/injection, schedule: Q04DX004 (ip), vehicle: distilled water + Tween-80): 104 % of control
- T/C (dose: 150.0 mg/kg/injection, schedule: Q04DX004 (ip), vehicle: distilled water + Tween-80): 101 % of control
- T/C (dose: 300.0 mg/kg/injection, schedule: Q04DX004 (ip), vehicle: distilled water + Tween-80): 105 % of control
- T/C (dose: 600.0 mg/kg/injection, schedule: Q04DX004 (ip), vehicle: distilled water + Tween-80): 110 % of control

Compound: CC[C@@]1(O)C(=O)OCc2c1cc1n(c2=O)Cc2cc3ccccc3nc2-1
- T/C (dose: 0.37 mg/kg/injection, schedule: Q04DX004 (ip), vehicle: saline with Tween-80): 107 % of control
- T/C (dose: 0.75 mg/kg/injection, schedule: Q04DX004 (ip), vehicle: saline with Tween-80): 109 % of control
- T/C (dose: 1.5 mg/kg/injection, schedule: Q04DX004 (ip), vehicle: saline with Tween-80): 118 % of control
- T/C (dose: 3.0 mg/kg/injection, schedule: Q04DX004 (ip), vehicle: saline with Tween-80): 150 % of control
- T/C (dose: 6.0 mg/kg/injection, schedule: Q04DX004 (ip), vehicle: saline with Tween-80): 153 % of control and 159 % of control

Compound: CN1COc2c(n(C)c(=O)[nH]c2=O)C1
- T/C (dose: 50.0 mg/kg/injection, schedule: Q04DX004 (ip), vehicle: suspension in saline): 106 % of control
- T/C (dose: 100.0 mg/kg/injection, schedule: Q04DX004 (ip), vehicle: suspension in saline): 106 % of control
- T/C (dose: 200.0 mg/kg/injection, schedule: Q04DX004 (ip), vehicle: suspension in saline): 105 % of control
- T/C (dose: 400.0 mg/kg/injection, schedule: Q04DX004 (ip), vehicle: suspension in saline): 106 % of control
- T/C (dose: 800.0 mg/kg/injection, schedule: Q04DX004 (ip), vehicle: suspension in saline): 114 % of control

Compound: CCOC(=O)c1cc(-c2ccccc2)c(=O)c(OC)nc1-c1ccccc1
- T/C (dose: 18.75 mg/kg/injection, schedule: Q04DX004 (ip), vehicle: saline with Tween-80): 87 % of control
- T/C (dose: 37.5 mg/kg/injection, schedule: Q04DX004 (ip), vehicle: saline with Tween-80): 95 % of control
- T/C (dose: 75.0 mg/kg/injection, schedule: Q04DX004 (ip), vehicle: saline with Tween-80): 93 % of control
- T/C (dose: 150.0 mg/kg/injection, schedule: Q04DX004 (ip), vehicle: saline with Tween-80): 90 % of control

Compound: CNC(=O)/C=C/C1=CN2C(=O)c3ccc(C)c(O)c3NC(OC)C2C1 (stereo not given)
- T/C (dose: 12.5 micrograms/kg/injection, schedule: Q04DX004 (ip), vehicle: saline): 101 % of control and 108 % of control
- T/C (dose: 25.0 micrograms/kg/injection, schedule: Q04DX004 (ip), vehicle: saline): 104 % of control and 124 % of control
- T/C (dose: 50.0 micrograms/kg/injection, schedule: Q04DX004 (ip), vehicle: saline): 95 % of control and 108 % of control
- T/C (dose: 100.0 micrograms/kg/injection, schedule: Q04DX004 (ip), vehicle: saline): 98 % of control and 115 % of control
- T/C (dose: 200.0 micrograms/kg/injection, schedule: Q04DX004 (ip), vehicle: saline): 112 % of control

Compound: O=C([O][Bi]([c]1ccccc1)[c]1ccccc1)c1ccccc1
- T/C (dose: 6.25 mg/kg/injection, schedule: Q04DX004 (ip), vehicle: Klucel (hydroxypropylcellulose) (HPC)): 96 % of control
- T/C (dose: 12.5 mg/kg/injection, schedule: Q04DX004 (ip), vehicle: Klucel (hydroxypropylcellulose) (HPC)): 111 % of control
- T/C (dose: 25.0 mg/kg/injection, schedule: Q04DX004 (ip), vehicle: Klucel (hydroxypropylcellulose) (HPC)): 101 % of control
- T/C [1]: 95 % of control
- T/C [2]: 91 % of control

Compound: COc1cc2c(c(OC)c1OC)-c1ccc(OC)c(=O)cc1[C@@H](N)CC2
- T/C (dose: 5.0 mg/kg/injection, schedule: Q04DX004 (ip), vehicle: saline): 119 % of control
- T/C (dose: 5.0 mg/kg/injection, schedule: Q04DX004 (ip), vehicle: suspension in saline): 116 % of control
- T/C (dose: 8.6 mg/kg/injection, schedule: Q04DX004 (ip), vehicle: suspension in saline): 123 % of control
- T/C (dose: 10.0 mg/kg/injection, schedule: Q04DX004 (ip), vehicle: suspension in saline): 118 % of control
- T/C (dose: 20.0 mg/kg/injection, schedule: Q04DX004 (ip), vehicle: saline): 152 % of control
- T/C (dose: 24.0 mg/kg/injection, schedule: Q04DX004 (ip), vehicle: suspension in saline): 123 % of control
- T/C (dose: 40.0 mg/kg/injection, schedule: Q04DX004 (ip), vehicle: saline): 157 % of control

Compound: CN(C)c1ccc2c(Nc3ccc(NS(C)(=O)=O)cc3)c3ccc(N(C)C)cc3nc2c1
- T/C (dose: 21.6 mg/kg/injection, schedule: Q04DX004 (ip), vehicle: Klucel (hydroxypropylcellulose) (HPC)): 116 % of control
- T/C [1]: 151 % of control
- T/C [2]: 159 % of control
- T/C (dose: 166.7 mg/kg/injection, schedule: Q04DX004 (ip), vehicle: Klucel (hydroxypropylcellulose) (HPC)): 172 % of control

Compound: NC(C/[N+]([O-])=N/O)C(=O)O (stereo not given)
- T/C (dose: 30.0 mg/kg/injection, schedule: Q04DX005 (ip), vehicle: alkali diluted with saline): 93 % of control
- T/C (dose: 120.0 mg/kg/injection, schedule: Q04DX005 (ip), vehicle: alkali diluted with saline): 103 % of control
- T/C (dose: 240.0 mg/kg/injection, schedule: Q04DX005 (ip), vehicle: alkali diluted with saline): 118 % of control

Compound: C=Cc1cc(OC)c2c(c1)c(=O)oc1c2cc(OC)c2c(O)ccc(C3OC(C(C)O)C(O)C3O)c21 (stereo not given)
- T/C [1]: 109 % of control
- T/C [2]: 115 % of control
- T/C (dose: 200.0 mg/kg/injection, schedule: Q04DX004 (ip), vehicle: Klucel (hydroxypropylcellulose) (HPC)): 110 % of control

Compound: NCCNCC(O)CO (stereo not given)
- T/C [3]: 99 % of control
- T/C [4]: 103 % of control
- T/C [5]: 103 % of control
- T/C (dose: 400.0 mg/kg/injection, schedule: Q04DX004 (ip), vehicle: saline): 99 % of control
- T/C (dose: 800.0 mg/kg/injection, schedule: Q04DX004 (ip), vehicle: saline): 95 % of control

Compound: CCN(CC)CC(=O)O[C@]1(CC)C(=O)OCc2c1cc1n(c2=O)Cc2cc3ccccc3nc2-1
- T/C (dose: 2.0 mg/kg/injection, schedule: Q04DX004 (ip), vehicle: water): 106 % of control and 110 % of control
- T/C (dose: 4.0 mg/kg/injection, schedule: Q04DX004 (ip), vehicle: water): 107 % of control and 108 % of control
- T/C (dose: 8.0 mg/kg/injection, schedule: Q04DX004 (ip), vehicle: water): 120 % of control and 124 % of control

Compound: CC(NNC(=S)N(C)C1CCCCC1)c1cc2ccccc2cn1 (stereo not given)
- T/C [3]: 102 % of control
- T/C [4]: 105 % of control
- T/C [5]: 111 % of control

Compound: C[C@@]1(CO)[C@H](O)CC[C@@]2(C)[C@H]1CC[C@H]1C[C@@H]3C[C@@]12CC[C@@]3(O)COC(=O)CN
- T/C (dose: 7.2 mg/kg/injection, schedule: Q03HX027 (ip), vehicle: saline + alcohol): 116 % of control
- T/C (dose: 10.0 mg/kg/injection, schedule: Q03HX027 (ip), vehicle: saline + alcohol): 121 % of control
- T/C (dose: 12.0 mg/kg/injection, schedule: Q03HX027 (ip), vehicle: saline + alcohol): 116 % of control
- T/C (dose: 18.8 mg/kg/injection, schedule: Q04DX004 (ip), vehicle: saline + alcohol): 109 % of control
- T/C (dose: 20.0 mg/kg/injection, schedule: Q03HX027 (ip), vehicle: saline + alcohol): 157 % of control
- T/C (dose: 37.5 mg/kg/injection, schedule: Q04DX004 (ip), vehicle: saline + alcohol): 104 % of control
- T/C (dose: 55.6 mg/kg/injection, schedule: Q03HX027 (ip), vehicle: saline + alcohol): 156 % of control
- T/C (dose: 75.0 mg/kg/injection, schedule: Q04DX004 (ip), vehicle: saline + alcohol): 102 % of control
- T/C (dose: 120.0 mg/kg/injection, schedule: Q01DX009 (ip), vehicle: saline + alcohol): 110 % of control

Compound: Oc1ccc(/C=N/N=C/c2ccc(O)c(O)c2)cc1O
- T/C [6]: 98 % of control
- T/C [7]: 95 % of control
- T/C [8]: 95 % of control
- T/C [9]: 93 % of control
- T/C (dose: 800.0 mg/kg/injection, schedule: Q04DX004 (ip), vehicle: saline with Tween-80): 107 % of control

Compound: S=C(NCNC(=S)c1ccncc1)c1ccncc1
- T/C (dose: 25.0 mg/kg/injection, schedule: Q04DX004 (ip), vehicle: saline with Tween-80): 96 % of control
- T/C [6]: 99 % of control
- T/C [7]: 92 % of control
- T/C [8]: 102 % of control
- T/C [9]: 107 % of control

Compound: O=C(Nc1cc(Cl)ccc1C(=O)O)c1cccc(C[n+]2ccccc2)c1
- T/C [6]: 100 % of control
- T/C [7]: 104 % of control
- T/C [8]: 95 % of control
- T/C [9]: 88 % of control
